According to ChEMBL document CHEMBL1201862, “PubChem BioAssay data set” (2004):
The source made the active and inactive calls.

Columns and labels:
[1] = target: Adenosylmethionine-8-amino-7-oxononanoate aminotransferase (Mycobacterium tuberculosis, UniProt P9WQ81); test: Mycobacterium tuberculosis BioA enzyme inhibitor Measured in Biochemical System Using Plate Reader - 2163-02_Inhibitor_Dose_CherryPick_Activity.; type: functional, Mycobacterium tuberculosis UT205
[2] = HEK293 cell viability, dose response, counter-screen for EBV LMP1 inhibitor project, dry powder, set 2 (AID 624374); type: functional
Mu-type opioid receptor = Mu-type opioid receptor (Homo sapiens, UniProt P35372); type: functional, cell-based;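 further: U2OS cells with beta-arrestin recruitment to OPRM1 by beta-gal complementation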
[3] = target: 5-hydroxytryptamine receptor 2A (Mus musculus, UniProt P35363); type: functional, cell-based;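 further: CHO-K1 cells with tagged receptor and beta-arrestin; agonist potency measured as compound-induced activation of the receptor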
Beta-galactosidase = Beta-galactosidase (Escherichia coli, UniProt Q8VNN2); test: Dose response counterscreen for EBI2 assay utilizing the enzyme, b-galactosidase.; type: functional
[4] = target: T1, Replicative DNA helicase DnaB (Mycobacterium tuberculosis, UniProt P9WMR3); test: DnaB intein splicing inhibitors, dose response, biochemical, cell-free fluorescence (AID 449749); type: functional
T1 sequence (P9WMR3 whole entry): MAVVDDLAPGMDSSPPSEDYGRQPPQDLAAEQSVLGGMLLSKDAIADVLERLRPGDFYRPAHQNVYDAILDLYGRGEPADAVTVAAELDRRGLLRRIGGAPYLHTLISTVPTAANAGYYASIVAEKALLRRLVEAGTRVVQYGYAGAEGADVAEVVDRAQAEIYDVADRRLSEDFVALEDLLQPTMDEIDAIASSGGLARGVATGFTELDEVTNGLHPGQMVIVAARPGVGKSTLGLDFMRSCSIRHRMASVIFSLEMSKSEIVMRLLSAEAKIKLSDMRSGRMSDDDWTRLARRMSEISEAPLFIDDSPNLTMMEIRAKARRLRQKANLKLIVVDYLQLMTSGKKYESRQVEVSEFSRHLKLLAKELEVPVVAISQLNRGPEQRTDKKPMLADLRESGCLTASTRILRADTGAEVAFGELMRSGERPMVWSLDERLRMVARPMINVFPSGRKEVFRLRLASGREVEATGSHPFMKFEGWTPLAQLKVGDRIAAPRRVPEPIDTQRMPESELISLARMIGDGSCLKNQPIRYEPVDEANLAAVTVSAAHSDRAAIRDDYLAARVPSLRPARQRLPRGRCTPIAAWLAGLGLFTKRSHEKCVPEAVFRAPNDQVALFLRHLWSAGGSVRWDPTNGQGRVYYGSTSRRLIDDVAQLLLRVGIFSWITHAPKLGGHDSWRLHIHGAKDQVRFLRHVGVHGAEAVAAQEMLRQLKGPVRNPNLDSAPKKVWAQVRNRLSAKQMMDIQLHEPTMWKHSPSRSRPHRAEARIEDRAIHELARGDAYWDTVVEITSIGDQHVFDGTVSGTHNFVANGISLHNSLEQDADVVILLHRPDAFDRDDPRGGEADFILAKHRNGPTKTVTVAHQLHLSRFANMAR

Streptokinase A = target: T2, Streptokinase A (Streptococcus pyogenes serotype M1, UniProt P10520); test: S. pyogenes streptokinase expression inhibitors, potency, dose response, plasminogen activation absorbance, OD405 (AID 1914); type: functional, Streptococcus pyogenes M1 GAS;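 further: secreted streptokinase activity via plasminogen activation per viability signal from cell pellet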
T2 sequence (P10520 whole entry): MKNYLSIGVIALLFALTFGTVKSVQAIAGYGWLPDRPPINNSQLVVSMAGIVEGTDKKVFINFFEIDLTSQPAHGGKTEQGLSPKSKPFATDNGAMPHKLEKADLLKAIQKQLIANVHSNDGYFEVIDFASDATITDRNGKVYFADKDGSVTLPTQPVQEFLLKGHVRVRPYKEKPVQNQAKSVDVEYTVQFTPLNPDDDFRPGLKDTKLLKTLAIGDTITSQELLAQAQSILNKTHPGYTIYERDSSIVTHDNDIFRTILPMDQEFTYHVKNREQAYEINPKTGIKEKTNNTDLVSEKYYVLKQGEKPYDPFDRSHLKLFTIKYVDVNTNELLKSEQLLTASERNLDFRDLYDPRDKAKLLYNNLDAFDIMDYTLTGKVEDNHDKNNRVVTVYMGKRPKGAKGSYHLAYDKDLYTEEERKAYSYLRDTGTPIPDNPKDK

[5] = Luminescence Cell-Based Dose Retest to Confirm Inhibitors of Cancer Stem Cells. [Related pubchem assays (depositor defined):AID2717, AID2721]; type: functional; settings: Homo sapiens
[6] = test system: Streptococcus sp. 'group A'; test: growth inhibition of control SK(-) GAS strain, dose response, counter-screen for streptokinase expression inhibitor project, luminescence, kanamycin, BacTiterGlo, confirmation (AID 1900); type: functional, organism-based
Melanocortin receptor 4 = Melanocortin receptor 4 (Homo sapiens, UniProt P32245); type: functional, cell-based;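 further: Cell-based assay with luminescence read-out, confirmatory dose-response testing for agonist activity of biased ligands at MC4R; human U2OS cells with tagged receptor and beta-arrestin; potency of agonists that increase receptor coupling to beta-arrestin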
[7] = inhibitors of intracellular T. cruzi replication, confirmation, NIH3T3 host cells, beta-gal luminescence (AID 2044); type: functional, cell-based;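 further: intracellular parasites grown in NIH/3T3 mouse fibroblasts as host cells; luminescent beta-galactosidase reporter signal from transgenic T. cruzi replicating inside host cells; inhibitors lower the luminescence signal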
[8] = target: T3, Heat shock factor protein 1 (Mus musculus, UniProt P38532); test: HSF1 potentiators in luciferase reporter cells, confirmation, cell-based, NIH3T3, luminescence, dose retest (AID 435004); type: functional;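 further: stress induced by proteasome inhibitor MG132 added 30 min after compound; luciferase reporter driven by HSF1 response element in NIH3T3 cells; actives raise luminescence as potentiators of the MG132 stress response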
T3 sequence (P38532 whole entry): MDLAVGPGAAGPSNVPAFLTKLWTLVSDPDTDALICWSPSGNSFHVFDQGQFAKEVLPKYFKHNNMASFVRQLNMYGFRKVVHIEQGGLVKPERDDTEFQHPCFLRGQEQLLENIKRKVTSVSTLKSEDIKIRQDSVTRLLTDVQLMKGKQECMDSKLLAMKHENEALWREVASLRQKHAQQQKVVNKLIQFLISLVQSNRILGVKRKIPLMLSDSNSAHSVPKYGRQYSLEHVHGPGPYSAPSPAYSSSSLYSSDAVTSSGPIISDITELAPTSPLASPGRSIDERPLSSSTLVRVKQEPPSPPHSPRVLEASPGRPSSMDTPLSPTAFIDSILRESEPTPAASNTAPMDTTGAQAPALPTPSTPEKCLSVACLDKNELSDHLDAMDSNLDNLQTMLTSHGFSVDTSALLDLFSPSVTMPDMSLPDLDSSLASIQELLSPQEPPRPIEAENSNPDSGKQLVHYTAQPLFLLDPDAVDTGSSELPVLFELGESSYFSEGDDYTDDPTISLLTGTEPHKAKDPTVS

Protein RecA = target: T4, Protein RecA (Mycobacterium tuberculosis, UniProt P9WHJ3); test: Fluorescence Cell-Free Homogeneous Dose Retest to Identify Inhibitors of RecA-Intein Splicing Activity. [Related pubchem assays (depositor defined):AID2097, AID2223, AID489010, AID492950]; type: functional
T4 sequence (P9WHJ3 whole entry): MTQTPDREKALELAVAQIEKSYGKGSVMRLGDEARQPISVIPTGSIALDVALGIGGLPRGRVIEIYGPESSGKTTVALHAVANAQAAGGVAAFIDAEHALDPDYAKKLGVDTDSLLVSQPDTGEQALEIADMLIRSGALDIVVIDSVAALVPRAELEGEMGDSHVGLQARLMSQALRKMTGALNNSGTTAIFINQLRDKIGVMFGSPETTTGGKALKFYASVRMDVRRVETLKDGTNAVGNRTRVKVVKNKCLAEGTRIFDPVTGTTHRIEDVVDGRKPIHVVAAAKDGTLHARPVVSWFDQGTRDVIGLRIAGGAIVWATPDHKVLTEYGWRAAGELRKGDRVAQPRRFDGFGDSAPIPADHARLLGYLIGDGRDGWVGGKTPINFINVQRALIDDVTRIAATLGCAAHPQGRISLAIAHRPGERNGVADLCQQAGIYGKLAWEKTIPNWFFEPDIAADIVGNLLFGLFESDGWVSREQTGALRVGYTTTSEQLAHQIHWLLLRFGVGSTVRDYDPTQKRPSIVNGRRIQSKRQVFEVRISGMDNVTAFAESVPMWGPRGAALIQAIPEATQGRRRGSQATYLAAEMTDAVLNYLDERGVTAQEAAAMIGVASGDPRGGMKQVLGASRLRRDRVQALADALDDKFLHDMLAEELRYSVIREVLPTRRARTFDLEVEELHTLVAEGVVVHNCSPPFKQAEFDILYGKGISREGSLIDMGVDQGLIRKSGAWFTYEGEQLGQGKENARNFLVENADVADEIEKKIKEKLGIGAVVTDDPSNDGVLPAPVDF

[9] = cytotoxicity toward NIH3T3 fibroblasts, dose response, counter-screen, cell-based, ATP luminescence, mouse fibroblasts (AID 2010); type: functional;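 further: cells exposed to compound for about 90 hours before reading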
Streptococcus = test: Group A Streptococcus viability loss, dose response, counter-screen for streptokinase expression inhibitor project, luminescence, BacTiterGlo (AID 1915); type: functional, organism-based;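 further: potency for reduction of bacterial viability or growth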

Adenosylmethionine-8-amino-7-oxononanoate aminotransferase, sequence (P9WQ81 whole entry): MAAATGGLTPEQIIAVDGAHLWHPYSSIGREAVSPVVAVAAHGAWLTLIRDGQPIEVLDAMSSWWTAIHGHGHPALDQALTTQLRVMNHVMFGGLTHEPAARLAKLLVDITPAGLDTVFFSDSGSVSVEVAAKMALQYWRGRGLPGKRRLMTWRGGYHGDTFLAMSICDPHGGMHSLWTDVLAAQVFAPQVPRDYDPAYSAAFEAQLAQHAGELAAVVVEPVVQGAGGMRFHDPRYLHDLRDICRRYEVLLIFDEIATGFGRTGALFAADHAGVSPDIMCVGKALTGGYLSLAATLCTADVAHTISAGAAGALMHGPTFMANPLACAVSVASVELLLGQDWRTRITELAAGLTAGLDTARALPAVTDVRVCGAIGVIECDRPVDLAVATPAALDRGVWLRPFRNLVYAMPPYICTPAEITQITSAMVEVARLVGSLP
Beta-galactosidase, sequence (Q8VNN2 whole entry): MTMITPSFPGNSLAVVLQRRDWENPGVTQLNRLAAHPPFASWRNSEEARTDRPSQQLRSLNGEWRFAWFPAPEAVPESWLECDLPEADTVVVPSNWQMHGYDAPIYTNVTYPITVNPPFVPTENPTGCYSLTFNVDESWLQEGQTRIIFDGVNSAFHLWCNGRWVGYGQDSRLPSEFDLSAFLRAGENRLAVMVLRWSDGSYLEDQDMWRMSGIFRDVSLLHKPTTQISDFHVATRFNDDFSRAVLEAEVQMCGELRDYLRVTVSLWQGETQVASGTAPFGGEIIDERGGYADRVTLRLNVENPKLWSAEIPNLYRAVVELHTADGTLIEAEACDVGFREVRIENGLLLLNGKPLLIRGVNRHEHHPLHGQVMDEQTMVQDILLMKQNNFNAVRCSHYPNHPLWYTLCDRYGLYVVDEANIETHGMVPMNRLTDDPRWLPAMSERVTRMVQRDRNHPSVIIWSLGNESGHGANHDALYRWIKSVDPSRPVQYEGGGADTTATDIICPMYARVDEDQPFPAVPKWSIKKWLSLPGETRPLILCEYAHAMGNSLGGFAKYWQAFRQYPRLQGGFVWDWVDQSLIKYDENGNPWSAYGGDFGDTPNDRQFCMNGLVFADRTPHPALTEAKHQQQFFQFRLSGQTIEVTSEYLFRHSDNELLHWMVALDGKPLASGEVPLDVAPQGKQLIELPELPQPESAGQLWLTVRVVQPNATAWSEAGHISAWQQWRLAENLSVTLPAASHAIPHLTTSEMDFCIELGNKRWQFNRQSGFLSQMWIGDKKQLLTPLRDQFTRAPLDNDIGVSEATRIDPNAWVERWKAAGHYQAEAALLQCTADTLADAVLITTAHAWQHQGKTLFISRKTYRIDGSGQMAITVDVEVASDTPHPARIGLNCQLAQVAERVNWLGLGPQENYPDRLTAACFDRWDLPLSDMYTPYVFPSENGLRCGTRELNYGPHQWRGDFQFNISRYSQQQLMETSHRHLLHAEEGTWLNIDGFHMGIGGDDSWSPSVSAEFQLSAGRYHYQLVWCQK
5-hydroxytryptamine receptor 2A, sequence (P35363 whole entry): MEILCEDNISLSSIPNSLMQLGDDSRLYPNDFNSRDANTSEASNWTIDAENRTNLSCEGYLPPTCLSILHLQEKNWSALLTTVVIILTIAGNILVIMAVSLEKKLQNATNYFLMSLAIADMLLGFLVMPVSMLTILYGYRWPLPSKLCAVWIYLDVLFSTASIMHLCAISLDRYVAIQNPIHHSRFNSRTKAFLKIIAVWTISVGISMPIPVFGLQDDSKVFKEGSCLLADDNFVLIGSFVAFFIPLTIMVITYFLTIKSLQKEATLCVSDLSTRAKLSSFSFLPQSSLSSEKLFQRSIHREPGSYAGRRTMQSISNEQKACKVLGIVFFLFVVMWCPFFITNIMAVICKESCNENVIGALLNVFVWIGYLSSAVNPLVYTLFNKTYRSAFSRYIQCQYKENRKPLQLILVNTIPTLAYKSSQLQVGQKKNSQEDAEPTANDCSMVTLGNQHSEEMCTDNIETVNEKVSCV
Melanocortin receptor 4, sequence (P32245 whole entry): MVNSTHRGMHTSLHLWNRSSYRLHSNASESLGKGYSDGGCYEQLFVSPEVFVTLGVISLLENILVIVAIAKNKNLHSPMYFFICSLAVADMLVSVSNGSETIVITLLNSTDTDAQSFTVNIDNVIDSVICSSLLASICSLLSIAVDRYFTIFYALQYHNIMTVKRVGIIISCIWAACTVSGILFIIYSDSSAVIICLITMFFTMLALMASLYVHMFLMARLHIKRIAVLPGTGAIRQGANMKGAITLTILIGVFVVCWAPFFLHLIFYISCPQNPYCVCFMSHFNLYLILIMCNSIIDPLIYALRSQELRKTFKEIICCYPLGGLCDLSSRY
Mu-type opioid receptor, sequence (P35372 whole entry): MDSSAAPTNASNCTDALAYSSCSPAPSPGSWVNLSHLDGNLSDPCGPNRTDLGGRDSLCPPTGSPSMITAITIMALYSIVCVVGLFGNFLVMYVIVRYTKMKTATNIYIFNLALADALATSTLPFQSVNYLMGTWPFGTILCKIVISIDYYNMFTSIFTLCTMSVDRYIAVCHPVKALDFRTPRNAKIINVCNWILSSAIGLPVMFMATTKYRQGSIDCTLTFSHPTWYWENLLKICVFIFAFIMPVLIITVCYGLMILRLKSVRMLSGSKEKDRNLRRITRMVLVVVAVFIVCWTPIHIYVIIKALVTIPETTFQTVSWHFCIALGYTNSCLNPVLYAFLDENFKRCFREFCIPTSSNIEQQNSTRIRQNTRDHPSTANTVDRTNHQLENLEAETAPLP

With `COC(=O)[C@@H]1[C@@H](CO)[C@@H]2Cn3c(ccc(-c4ccccc4)c3=O)[C@@H]2N1Cc1cccc(F)c1` as the compound, how does the AC50 [1] read?
Its AC50 is 4.33 µM (active).

For `CO[C@H]1CN(C)C(=O)c2ccc(NC(=O)C3CC3)cc2OC[C@H](C)N(C(=O)c2ccccn2)C[C@H]1C`, which AbsAC35 [2] is on record?
Its AbsAC35 is 207.94 µM.

Which EC50 (Mu-type opioid receptor) does the source give for `O=C(NCC(c1ccco1)N1CCN(c2ccccc2F)CC1)C1CCCCC1` (stereo unspecified) here?
Its EC50 is 92.5 µM (inactive).

And the EC50 [3]?
The EC50 was 76.1 µM (inactive).

Which IC50 (Beta-galactosidase) does the source give for `CCOC(=O)C1=C(Nc2ccc(OC)cc2)S/C(=C\c2cc(OC)c(OC)c(OC)c2)C1=O` here?
The IC50 was > 80 µM (inactive).

For `CCC(=O)N1CC[C@@H]2[C@H]1c1cc(-c3cccc(F)c3)ccc1N(C)[C@@H]2CO`, which AC50 [1] is on record?
Its AC50 is 2.44 µM (active).

For `O=C1C2=C(N=C(S)NC2c2ccc(Cl)cc2)NC(c2ccc(Cl)cc2)N1c1ccc(Cl)cc1` (stereo unspecified), which AC50 [4] is on record?
The AC50 was 5.92 µM (active).

What about the EC50 (Streptokinase A) of the same compound?
The EC50 was > 150 µM (not active).

What about the AC50 [5] of the same compound?
Its AC50 is 4.68 µM (active).

What about the EC50 [6] of the same compound?
The EC50 was 1.89 µM (active).

What about the EC50 (Melanocortin receptor 4) of the same compound?
Its EC50 is 9.63 µM (active).

What about the EC50 [7] of the same compound?
The EC50 was 3.44 µM (active).

And the EC50 [8]?
Its EC50 is > 260 µM (inactive).

And the EC50 (Protein RecA)?
Its EC50 is 13.1 µM (active).

And the EC50 [9]?
Its EC50 is > 60 µM (not active).

What about the EC50 (Streptococcus) of the same compound?
Its EC50 is 2.61 µM (active).
